{
  "source": "patent US9567318B2",
  "about": "“Substituted pyrimidine compounds and uses thereof” (Memorial Sloan-Kettering Cancer Center, priority 2009, dated 2017)",
  "format_in_all_cases": "cell-based, human",
  "key": {"[1]": {"test_system": "Mia-PaCa2, AsPC-1, BxPC3 and PL45 cells", "assay": "Apoptosis, acridine orange/ethidium bromide, pancreatic cancer cells", "conditions": "10 μM, 24-48 h", "method": "To determine whether cell death by YK5 was attributable to apoptosis, cells were treated with YK5 and effects on morphology, as well as on several effectors and mediators of apoptosis were analyzed (FIG. 13). To quantify the number of cells undergoing apoptosis, cells were stained with acridine orange/ethidium bromide (AO/EB) and analyzed under a fluorescence microscope for the percentage of viable, apoptotic (early and late) and necrotic cells. […] Most sensitive to YK5 were pancreatic cancer cells.\nApoptosis-Acridine Orange/Ethidium Bromide. Apoptosis was determined using acridine orange/ethidium bromide (AO/EB) double staining. Acridine orange is taken up by both viable and nonviable cells and emits green fluorescence if intercalated into double stranded nucleic acid (DNA) or red fluorescence if bound to single stranded nucleic acid (RNA). Ethidium bromide is taken up only by nonviable cells and emits red fluorescence by intercalation into DNA. (1) Viable cells have uniform green nuclei with organized structure. […] Following staining with Acridine Orange and Ethidium Bromide cells were visualized with a fluorescent microscope (Zeiss Axiovert 40 CFL) and counted. Percentage of apoptotic cells was determined from 200-300 cells counted in each group."}, "[2]": {"test_system": "SKBr3 HER2+ breast cancer cells", "assay": "Growth Inhibition Assay (Alamar blue), SKBr3", "conditions": "Homo sapiens, SK-BR-3, 72 h", "method": "The IC50 values listed for some of these compounds illustrate the antiproliferative effects of the subject compounds and were obtained using the Growth Inhibition assays described herein.\nGrowth Inhibition Assay. Antiproliferative effects of inhibitors were evaluated using the dye Alamar blue. This reagent offers a rapid objective measure of cell viability in cell culture, and it uses the indicator dye resazurin to measure the metabolic capacity of cells, an indicator of cell viability. Briefly, cells were plated on Costar 96-well plates. For attached cells (such as SKBr3, MDA-MB-468, LNCaP, MRCS), 8,000 cells/well were used. For suspension cells (such as MOLM-13, Kasumi-1, OCI-Ly7, PBL), 20,000 cells/well were plated. Cells were allowed to incubate for 24 h at 37° C. before drug treatment. Drugs were added in triplicates at the indicated concentrations, and the plate was incubated for 72 h. Alamar Blue (440 μM) was added, and the plate read 6 h later using the Analyst GT (Fluorescence intensity mode, excitation 530 nm, emission 580 nm, with 560=dichroic mirror). Results were analyzed using the Softmax Pro software. The percentage cell growth inhibition was calculated by comparing fluorescence readings obtained from treated versus control cells, accounting for initial cell population (time zero)."}, "[3]": {"test_system": "MDA-MB-468 cells", "assay": "Propidium iodide staining and flow cytometry (cell cycle, hypodiploid population, TNFα)", "conditions": "YK5 1 μM, TNFα 20 ng/ml", "method": "(§1) FIG. 12. YK5 affects the major hallmarks of cancer: inhibits proliferation and invasiveness and arrests cancer cells in the cell cycle. (a) The indicated cancer cells were incubated with increasing concentrations of inhibitors and growth over 72 h was assessed. Y-axis values below 0% represent cell death of the starting population. Drugs were assayed in triplicate. (b) Mice (n=5) bearing MDA-MB-468 subcutaneously (s.c.) xenografted tumors that reached a volume of approximately 100-200 mm^3, were administered i.t. YK5 or vehicle as described in Methods. Tumor volume (mm^3) was estimated from caliper measurements. (c) Cells were treated for 24 h with indicated concentrations of YK5. DNA content was analyzed by propidium iodide staining and flow cytometry (left), whereas proteins by western blotting (right). (d) Hsp70 client proteins isolated by YK55-beads from SKBr3 and MDA-MB-468 extracts (500 μg) were analyzed by western blotting. Control beads contain D-biotin (100 μM) attached. (e) MDA-MB-231 breast cancer cells were treated for 24 h with YK5 (1 μM) and protein extracts were subjected to immunoblotting (upper) or pre-treated for 24 h with vehicle or YK5, and viable cells able to migrate through Matrigel over a 20 h period were quantified and data graphed (lower). […]\nFIG. 13. […] (a,b) Apoptotic cells were quantified by dual acridine orange/ethidium bromide staining as described in Methods. […]"}, "[4]": {"test_system": "MDA-MB-231 cells", "assay": "Cell invasion assay (Boyden chamber Matrigel)", "conditions": "1 μM pre-treatment 24 h, 20 h migration", "method": "as §1, with “Control beads contain D-biotin (100 μM) attached.” left out\nCell Invasion Assay. […] In summary, cells were stained with tryptan blue and counted manually with a hemacytometer. […] Cells in ten fields per membrane were counted at ×100 objective."}},
  "data": [
    {"smiles": "C=CC(=O)Nc1cc(N)nc(Sc2c(OC)nc(N3CCN(C)CC3)nc2OC)n1", "note": "[YK5, N-(6-amino-2-(4,6-dimethoxy-2-(4-methylpiperazin-1-yl)pyrimidin-5-ylthio)pyrimidin-4-yl)acrylamide]", "values": [
      {"measurement": "apoptosis in pancreatic cancer cells", "setting": "[1]", "value": "induced significant apoptosis"},
      {"measurement": "IC50", "setting": "[2]", "value": 0.455, "unit": "µM"},
      {"measurement": "apoptotic effect of TNFα", "setting": "[3]", "value": "increased the apoptotic effect of TNFα"},
      {"measurement": "invasion through Matrigel", "setting": "[4]", "value": "inhibited the ability of MDA-MB-231 cells to invade through Matrigel"}
    ]}
  ]
}
